# Legend:
# [1] = Stress relieving compounds given with anthelmintic, growth of ewes over 12 months (Experiment 13); type: in vivo, sheep; details: for effect on growth compared to control animals (FIG. 20): ewes treated every 2 months with anthelmintic plus agent; for effect on growth: alone or added to metyrapone
# Description: […] A further 7 ewes received either astressin 0.0005 g or astressin and metyrapone (astressin at 0.0005 g and metyrapone at 0.001 g) and the vitamin C and amino acid mixture as above.
# Bodyweight was measured monthly and animals were treated equivalently in all other aspects.
# [2] = test system: faecal egg count (parasites); experiment: Nitric oxide donor and anthelmintic efficacy, time until faecal egg count rose to around 600 (Experiment 15); type: in vivo, sheep; details: 0.0001 g per kg liveweight oral with anthelmintic every four months
# Excerpt: In a separate experiment 20 sheep (mixed male and females) received standard anthelmintic treatments similar to experiments 3 and 4, with anthelmintics and treatments given every four months. Treatment in 10 of these animals consisted of the anthelmintic dosing and S-nitroso-N-acetylpenicillamine, a nitric oxide donor at a dose of 0.0001 g per kg liveweight in an oral form. The other 10 received the anthelmintic and a glucose control. Anthelmintic successfulness in terms of time from treatment until faecal egg count rose to around 600 as described in experiments 3 and 4 was examined. […] FIG. 22 illustrates this.
# [3] = Broiler chicken trial: weight and feed conversion ratio with SAC in feed (Experiment 7); type: in vivo, broiler chickens
# Excerpt: This work aimed to investigate the effectiveness of an antistress containing composition or a stress alleviating composition (conveniently referred to as “SAC”), ([…], vitamin C and long chain amino acid mix) versus a calorie adjusted control, in lowering the physiological responses to stress and promoting growth in an intensive production systems (broiler chickens). In addition, the effect of the SAC agent in combination with existing industry feed additives (Performance enhancers: antibiotics and indigestible carbohydrates (oligosaccharides) was investigated in broiler chickens.
# 432 day-old male broiler chicks were used in the experiment carried out over six weeks in a poultry research unit. Chicks were assigned at random to one of 12 groups: • Group 1—Control 32° C. (n=36) • Group 2—Control 28° C. (n=36) • Group 3—Experimental Formulation A 32° C. (n=36) • Group 4—Experimental Formulation A 28° C. (n=36) • Group 5—Experimental Formulation B 28° C. (n=36) • Group 6—Experimental Formulation C 28° C. (n=36) • Group 7—Performance Enhancer 32° C. (n=36) • Group 8—Performance Enhancer 28° C. (n=36) • Group 9—Oligosaccharide 32° C. (n=36) • Group 10—Oligosaccharide 28° C. (n=36) • Group 11—Experimental Formulation A+Performance Enhancer 32° C. (n=36) • Group 12—Experimental Formulation A+Oligosaccharide 32C (n=36)
# Once selected, groups of 6 birds were housed per cage in heated brooders (i.e. One treatment group (36 birds) per 6 cages). Each group had access to pelleted feed (NRM New Zealand) in excess of requirements during the trial conforming to standard poultry use Ross broiler specification), and water was freely available. During the manufacturing of the feed the following treatments were included.
# SAC Agent (2-methyl-1,2-di-3-pyridyl-1-propanone, vitamin C, valine, isoleucine and leucine mixture), mixed with a glucose-based polymer carrier (0.01 g drug to 1 g of carrier) before addition to the feed in the following doses. • Formulation A (per kg feed): • 0.01 g 2-methyl-1,2-di-3-pyridyl-1-propanone • 0.1 g Vitamin C • 5 mg Valine, isoleucine and leucine • Formulation B (per kg feed): • 0.005 g 2-methyl-1,2-di-3-pyridyl-1-propanone • 0.05 g Vitamin C • 0.5 mg Valine, isoleucine and leucine • Formulation C (per kg feed): • 0.001 g 2-methyl-1,2-di-3-pyridyl-1-propanone • 0.01 g Vitamin C • 0.1 mg Valine, isolcucine and leucine • Performance Enhancers: • (Avilamycin (Surmax): Elanco Animal Health, Indianapolis, USA) • Dose: <0.2 g/kg (antibiotic concentration of 0.1 (g/ml). • Mannan oligosaccharide—indigestible carbohydrate (Bio-Mos: Alltech, Inc.USA) • Dose: 1 g/kg
# Daily feed intake was recorded for each group of birds, and all birds were weighed weekly.
# Birds were either kept at optimum temperature levels (32° C.) or exposed to cold stress (28° C.) from day 1 until day 14 of the trial. After 14 days they were removed to larger raised horizontal cages where all groups were maintained at 21° C. The birds remained in these cages for the remainder of the trial after which time they were slaughtered. After slaughter, meat from 6 birds per group was analysed for fat composition.
# [4] = test system: nematode; experiment: Anthelmintic efficacy (faecal egg / nematode counts) in stressed sheep given metyrapone (Experiments 3-5); type: in vivo
# Excerpt: In a first series of experiments, sheep were divided into pairs from initial twins. All the animals were grazed together, on the same paddocks, from pairing through to the end of the trial. They were thus exposed to the same potential parasite load and the same access to feed and water. The animals were also genetically similar (i.e at least one shared parent). Experiments were begun when the animal was 3 months of age. One half of the pairings were rounded up once a week and run through a race (control group). Any normal farm maintenance that was needed was done at this time, so that the time that animals may have been held was variable from week to week but consistent across the entire group and with the experimental group (see below). Faecal samples were also collected and both total egg and nematode egg counts calculated, and visual inspection for ectoparasites made. The other half of the pairings (chronic stress group) were exposed to the same handling […] (consistent with the single weekly procedure above) and in addition to this were run around a paddock by either a human or dog (alternating) for 10 minutes. In this manner a mild, chronic, handling stress was imposed on these animals. Races and handling facilities were cleaned between animal movements to avoid any risk of parasitic contamination. Animals were subject to the same anthelmintic treatments consisting of three pour-on (Ivomec pour on, MSD 1 ml per 50 kg), three oral (Endex, Novartis—1 ml per 5 kg) and three injectable treatments (levamisole. 7.5 mg/kg) per year (every four months). In a similar parallel experiment the control group was identical and the paired group to this control (acute stress) received identical treatment to the control group and in addition an acute stress one day prior to anthelmintic treatment. This consisted of chasing the group three times during the day with a dog for 15 min duration each time. The faecal egg count and ectoparasite assessment was the same in both groups at time of the first experimental anthelmintic treatment. […]
# [5] = Growth rate of sheep given metyrapone with anthelmintic treatment (Experiments 3 and 6); type: in vivo; details: no additional stresses; metyrapone 5 mg/kg at the time of anthelmintic treatment
# Excerpt: In a first series of experiments, sheep were divided into pairs from initial twins. All the animals were grazed together, on the same paddocks, from pairing through to the end of the trial. They were thus exposed to the same potential parasite load and the same access to feed and water. The animals were also genetically similar (i.e at least one shared parent). Experiments were begun when the animal was 3 months of age. One half of the pairings were rounded up once a week and run through a race (control group). Any normal farm maintenance that was needed was done at this time, so that the time that animals may have been held was variable from week to week but consistent across the entire group and with the experimental group (see below). Faecal samples were also collected and both total egg and nematode egg counts calculated, and visual inspection for ectoparasites made. Animals were subject to the same anthelmintic treatments consisting of three pour-on (Ivomec pour on, MSD 1 ml per 50 kg), three oral (Endex, Novartis—1 ml per 5 kg) and three injectable treatments (levamisole. 7.5 mg/kg) per year (every four months). In a similar set of experiments to experiment 1, the animals in the chronic stress group also all received a chemical substance metyrapone (in an oral form at 5 mg/kg live weight) at the time of anthelmintic treatment. […]
# [6] = Dose response and dose composition, growth promotant effects (Experiment 9); type: in vivo, sheep, poultry, pigs and rats; details: oral three times over six weeks
# Description: (§1) In four different species (sheep, poultry, pigs and rats) different dosages of the compound metyrapone alone or in combination with vitamin C, isoleucine, leucine, valine were tested for growth promotant effects.
# (§2) These mixtures were administered by oral routes three times over six weeks and a control group was administered a glucose mix at the same time (calorie equivalent). Animal growth in terms of liveweight gains were measured over periods of time, as was feed consumed.
# [7] = Dose response of metyrapone, growth promotant effects in pigs (Experiment 9); type: in vivo; details: oral three times over six weeks
# Description: as §1, §2
# [8] = test system: faecal count (parasites); experiment: Increase of anthelmintic effect, monthly faecal count (Experiment 10); type: in vivo, sheep; details: anthelmintics and agents given every four months; faecal count each month
# Description: In a further experiment similar to that described in experiments 3 and 4 the increased anthelmintic effect from vitamin C, isoleucine, valine and leucine alone or in combination with metyrapone, and metyrapone and pyrrolopyrimidine was tested. Anthelmintics and these agents were given every four months and faecal count calculated each month in between treatments.
# [9] = Reproductive success of ewes (Experiment 11); type: in vivo, sheep; details: over 3 seasons following original metyrapone treatments, vs control group
# Excerpt: Female sheep (20 ewes) chosen from original experiments in experiments 4, 5 and 6 were studied for seasonal reproductive success for up to 3 seasons following the original metyrapone treatments. These animals received no further metyrapone treatments and were kept in a flock with a similar selected group of 20 control age and weight matched counterparts that had not received metyrapone treatment.
# In a separate experiment using the different sheep with no previous exposure to treatments, 20 age and bodyweight matched ewes were run as a flock. Ten of these ewes received three treatments of metyrapone and vitamin C, isoleucine, leucine and valine at a dosage of 0.001 g metyrapone/0.01 g vitamin c, 0.0005 g each of valine, isoleucine and leucine per kg liveweight in an oral form without anthelmintics. These three treatments occurred one month prior to conception, in the first and third trimester of pregnancy. The remaining ten ewes received a similar handling and control administration of a glucose-amino acid mixture.
# [10] = week 2, end of the cold stress period 28° C.
# [11] = week 3, after the stressor was removed (21° C.)
# [12] = week 4, after the stressor was removed (21° C.)
compound,measurement,setting,value
astressin,Kg of Growth in 12 months,[1]; 0.0005 g/kg astressin,10 ± 4 kg
CC(=O)N[C@H](C(=O)O)C(C)(C)SN=O (racemic) [S-nitroso-N-acetylpenicillamine],effectiveness of anthelmintic (time until faecal egg count rose to around 600),[2],better effectiveness of anthelmintic than control animals
CC#C[C@]1(O)CC[C@H]2[C@@H]3CCC4=CC(=O)CCC4=C3[C@@H](c3ccc(N(C)C)cc3)C[C@@]21C [mifepristone],Kg of Growth in 12 months,[1]; 0.0001 g/kg mifepristone,4 ± 4 kg
same,Kg of Growth in 12 months,[1]; 0.0005 g/kg mifepristone,8 ± 2 kg
same,effect on growth compared to control animals (FIG. 20),[1],small positive effect
same,effect on growth,[1]; mifepristone dose 0.0001 g/kg,no effect compared to control
same,effect on growth,[1]; mifepristone dose 0.0005 g/kg,small increase in growth over control treatments
"COC[C@H]1O[C@@H](OC2OC[C@@H]3O[C@]4(O[C@H]3[C@H]2OC(=O)C(C)C)O[C@H](C)[C@@](O)(C(C)=O)[C@@H]2OCO[C@H]24)[C@@H](OC)[C@@H](O)[C@@H]1O[C@@H]1O[C@H](C)[C@H](OC)[C@H](O[C@H]2C[C@@]3(C)OC4(C[C@@H](O)[C@H](O[C@H]5C[C@@H](O)[C@H](OC(=O)c6c(C)c(Cl)c(O)c(Cl)c6OC)[C@@H](C)O5)[C@@H](C)O4)O[C@@H]3[C@@H](C)O2)[C@H]1O (some centres unmarked) [antibiotic performance enhancer, Avilamycin]",rate of growth in comparison to birds given the SAC,"[3]; exposed to cold stress, during cold stress and afterwards",lower rate of growth
same,weight heavier than control birds,"[3]; week 1, cold stress 28° C.",3.5 g
same,"weight heavier than control birds, percent","[3]; week 1, cold stress 28° C.",2.0%
same,weight heavier than control birds,[3]; [10],6.3 g
same,"weight heavier than control birds, percent",[3]; [10],1.3%
same,weight heavier than control birds,[3]; [11],42.6 g
same,"weight heavier than control birds, percent",[3]; [11],4.5%
same,weight heavier than control birds,[3]; [12],35.2 g
same,"weight heavier than control birds, percent",[3]; [12],2.2%
CCCN(CCC)C(=O)C(CCC(=O)O)NC(=O)c1ccccc1 (centres unmarked) [proglumide],effect on growth compared to control animals (FIG. 20),[1],small positive effect
"CC(C)(C(=O)c1cccnc1)c1cccnc1 [metyrapone, 2-methyl-1,2-di-3-pyridyl-1-propanone]",differences between acute stress and control groups,[4]; acute stress group receiving metyrapone oral 5 mg/kg with anthelmintic,no differences were seen between the acute and control groups
same,efficacy of anthelmintics compared with the non-stressed groups,"[4]; chronic stress group, metyrapone oral 5 mg/kg live weight at the time of anthelmintic treatment",same efficacy of anthelmintics as the non-stressed groups
same,time until nematode counts exceeded recommended number for dosing,"[4]; one treatment including metyrapone, chronic and acute stressed animals vs control group",no differences to the control group
same,"net gain, growth over the year (mean)",[5],18 kg
same,% gain in production with increase in dose,[6]; all species except pigs,an increase in gain was seen with an increase in dose of metyrapone levelling out
same,growth (liveweight gain),[6]; all species,increased growth
same,% gain in production with dose,[7],a low and a high dose were effective however a mid-range dose did not produce the same gains
same,anthelmintic effectiveness (faecal count),[8],more effective than with the anthelmintic alone
same,birthweight of lambs,[9],slightly greater than seen in the control group
same,Kg of Growth in 12 months,[1]; 0.0001 g/kg metyrapone,13 ± 3 kg
same,Kg of Growth in 12 months,[1]; 0.0001 g/kg metyrapone + control,14 ± 3 kg
same,effect on growth compared to control animals (FIG. 20),[1],larger effect

# Source: patent US6852333B1, “Agents and methods for promoting production gains in animals” (The Horticulture and Food Research Institute of New Zealand …, priority 1999, dated 2005)
